Test results reported in patent US12268694B2, “Combination pharmaceutical agents as RSV inhibitors” (Enanta Pharmaceuticals, Inc., priority 2017, dated 2025).
Like-named read-outs stand apart in the source and are kept apart here.

Experiments:
HEp-2 cells = experiment: Cytotoxicity in parallel to the RSV-A assay (no virus), ATPlite readout; format: cell-based, human
Method: Following extensive parameter testing, the final assay is run as follows: HEp-2 cells are seeded into the inner 60 wells of a 96-well plate at 8,000 cells per well in a volume of 50 μL using Growth Media (DMEM without phenol red, 1% L-Glut, 1% Penn/Strep, 1% nonessential amino acids, 10% heat-inactivated FBS). 2-fold serial dilutions of control and test compounds are added to the wells in duplicate in a total volume of 25 μL. Viral stock is then added to the wells at a multiplicity of infection (MOI) of 0.1 in a volume of 25 μL, bringing the total volume of each well to 100 μL. The MOI is calculated using the PFU/mL, or TCID50 if unavailable. Each 96-well plate has a control column of 6 wells with cells and virus but no compound (negative control, max CPE), a column with cells but no compound or virus (positive control, minimum CPE), and a column with no cells or virus or compound (background plate/reagent control). The control wells with cells but no virus are given an additional 25 μL of growth media containing an equal quantity of sucrose as those wells receiving the viral stock in order to keep consistent in media and volume conditions. The outer wells of the plate are filled with 125 μL of moat media (DMEM, 1% Penn/Strep) to act as a thermal and evaporative moat around the test wells. Following a 5-day incubation period, the plates are read using ATPlite (50 μL added per well), which quantifies the amount of ATP (a measure of cell health) present in each well. Assay plates are read using the Envision luminometer. In parallel, cytotoxicity is examined on an additional 96-well plate treated in an identical manner, but substituting the 25 μL of viral stock for 25 μL of growth media. […] EC50 ranges are as follows: A <0.4 μM; B 0.4-0.8 μM; C >0.8 μM and CC50 ranges are as follows: A >50 μM; B 10-50 μM; C <10 μM.

[1] = tested on: genotype A, "Long" strain RSV; experiment: RSV-A assay: CPE protection in HEp-2 cells, ATPlite readout; format: cell-based, human respiratory syncytial virus
In short: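 HEp-2 cells (8,000/well) with 2-fold compound dilutions in duplicate, infected with Long-strain RSV at MOI 0.1 and incubated 5 days. Cell ATP measured by ATPlite luminescence to give EC50; uninfected parallel plate gives CC50.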

[2] = human respiratory syncytial virus, HEp-2, read-out: Human RSV-A (“Long” strain) EC50
[3] = HEp-2 cells, RSV-A Long strain, ATPlite readout, read-out: Human RSV-A (“Long” strain) EC50

| Structure (SMILES) | EC50 [1, 2] | further results |
| --- | --- | --- |
| O=C1Nc2ccccc2C(c2ccccc2)=NC1Nc1nnc(-c2cc3cccnc3s2)o1 (stereo not drawn) [Example 43] | > 800 nM | CC50 (HEp-2 cells): > 50000 nM |
| COc1ccc(-c2nnc(NC3N=C(c4ccccc4)c4ccccc4NC3=O)o2)cn1 (stereo not drawn) [Example 54] | < 400 nM | CC50 (HEp-2 cells): > 50000 nM |
| COCC(C)(C)Nc1cc(C(F)(F)F)cnc1-c1nnc(N[C@H]2N=C(c3ccccc3)c3ccccc3NC2=O)o1 [Example 414] | > 800 nM |  |
| COCCNc1sccc1-c1nnc(N[C@H]2N=C(c3ccccc3)c3ccccc3NC2=O)o1 [Example 472] | > 800 nM |  |
| O=C1Nc2ccccc2C(c2ccccc2)=NC1Nc1nnc(-c2ccccc2-n2cccn2)o1 (stereo not drawn) [Example 283] | > 800 nM |  |
| CN(C)c1cc(C(F)(F)F)cnc1-c1nnc(N[C@H]2N=C(c3ccccc3)c3ccccc3NC2=O)o1 [Example 302] | > 800 nM |  |
| CC(C)(c1nc(-c2nnc(N[C@H]3N=C(c4ccccc4)c4ccccc4NC3=O)o2)c(N2CCOCC2)s1)N1CCOCC1 [Example 459] | < 400 nM |  |
| O=C1Nc2ccccc2C(c2ccccc2)=N[C@@H]1Nc1nnc(-c2nc(C(F)(F)F)sc2N2CCO[C@H]3C[C@H]32)o1 [Example 485] |  | EC50 [1, 3]: > 800 nM |
| CN[C@H](c1ccccc1)c1nnc(NC2N=C(c3ccccc3)c3ccccc3NC2=O)o1 (stereo partly drawn) [Example 238] | > 800 nM |  |
| O=C1Nc2ccccc2C(c2ccccc2)=N[C@@H]1Nc1nnc(-c2oc3cccc(F)c3c2N2CCOCC2)o1 [Example 477] | < 400 nM |  |
| O=C1Nc2ccccc2C(c2ccccc2)=NC1Nc1nnc(-c2cc(F)cnc2N2CCOCC2)o1 (stereo not drawn) [Example 145] | 400 to 800 nM |  |
| CC(C)(Cc1ccccc1)c1nnc(NC2N=C(c3ccccc3)c3ccccc3NC2=O)o1 (stereo not drawn) [Example 208] | > 800 nM |  |
| N#Cc1ccc(-c2nnc(NC3N=C(c4ccccc4)c4ccccc4NC3=O)o2)nc1 (stereo not drawn) [Example 24] | 400 to 800 nM |  |
| O=C1Nc2ccccc2C(c2ccccc2)=NC1Nc1nnc(-c2cccnc2N2CCC(F)CC2)o1 (stereo not drawn) [Example 256] | > 800 nM |  |
| O=C1Nc2ccccc2C(c2ccccc2)=NC1Nc1ncc(-c2ccccc2)s1 (stereo not drawn) [Example 85] | > 800 nM |  |
| Cn1ncc(-c2nnc(N[C@H]3N=C(c4ccccc4)c4ccccc4NC3=O)o2)c1N1CCOCC1 [Example 177] | > 800 nM |  |
| O=C1Nc2ccccc2C(c2ccccc2)=N[C@@H]1Nc1nnc(-c2ncc(C(F)(F)F)cc2N2CCC(O)CC2)o1 [Example 328] | > 800 nM |  |
| O=C1Nc2ccccc2C(c2ccccc2)=N[C@@H]1Nc1nnc(-c2nc(C3CCCCC3)sc2N2CCOCC2)o1 [Example 405] | < 400 nM |  |
| Cc1nc(-c2nnc(N[C@H]3N=C(c4ccccc4)c4ccccc4NC3=O)o2)c(C2CCOCC2)s1 [Example 346, (S)-3-((5-(2-methyl-5-(tetrahydro-2H-pyran-4-yl)thiazol-4-yl)-1,3,4-oxadiazol-2-yl)amino)-5-phenyl-1,3-dihydro-2H-benzo[e][1,4]diazepin-2-one] | < 400 nM |  |
| COC[C@@H]1CCCN1c1sc(C(F)(F)F)nc1-c1nnc(N[C@H]2N=C(c3ccccc3)c3ccccc3NC2=O)o1 [Example 457] | > 800 nM |  |
| O=C1Nc2ccccc2C(c2ccccc2)=NC1Nc1nnc([C@@H]2CCCO2)o1 (stereo partly drawn) [Example 207] | > 800 nM |  |
| COCCn1ccc2cccc(-c3nnc(N[C@H]4N=C(c5ccccc5)c5ccccc5NC4=O)o3)c21 [Example 426] | > 800 nM |  |
| CC1(C)C[C@@H]1c1nnc(NC2N=C(c3ccccc3)c3ccccc3NC2=O)o1 (stereo partly drawn) [Example 205] | > 800 nM |  |
| O=C1Nc2ccccc2C(c2ccccc2)=NC1Nc1nnc(-c2ccc(N3CCOCC3)cn2)o1 (stereo not drawn) [Example 114] | > 800 nM |  |
| O=C1Nc2ccccc2C(c2ccccc2)=N[C@@H]1Nc1nnc(-c2ccc(F)cc2N2CCOCC2)o1 [Example 159] | < 400 nM |  |
| O=C1Nc2ccccc2C(c2ccccc2)=NC1Nc1nnc(-c2ccccc2-c2ccncc2)o1 (stereo not drawn) [Example 226] | > 800 nM |  |
| O=C1Nc2ccccc2C(c2ccccc2)=N[C@@H]1Nc1nnc(-c2cnc(N3CCOCC3)nc2)o1 [Example 165] | 400 to 800 nM |  |
| N#CC1CCN(c2ncccc2-c2nnc(NC3N=C(c4ccccc4)c4ccccc4NC3=O)o2)CC1 (stereo not drawn) [Example 260] | > 800 nM |  |

| Structure (SMILES) | EC50 [1, 2] | further results |
| --- | --- | --- |
| Cn1cc(N2CCOCC2)c(-c2nnc(N[C@H]3N=C(c4ccccc4)c4ccccc4NC3=O)o2)n1 [Example 164] | < 400 nM |  |
| Cn1ncc(N2CCOCC2)c1-c1nnc(N[C@H]2N=C(c3ccccc3)c3ccccc3NC2=O)o1 [Example 178] | 400 to 800 nM |  |
| O=C1Nc2ccccc2C(c2ccccc2)=N[C@@H]1Nc1nnc(-c2ncc(C(F)(F)F)cc2NC[C@@H]2CCCO2)o1 [Example 419] | 400 to 800 nM |  |
| O=C1Nc2ccccc2C(c2ccccc2)=NC1Nc1nnc([C@@H]2CCCN2C2CCNCC2)o1 (stereo partly drawn) [Example 227] | > 800 nM |  |
| O=C1Nc2ccccc2C(c2ccccc2)=N[C@@H]1Nc1nnc(-c2ncc(C(F)(F)F)cc2NC2COC2)o1 [Example 469] | < 400 nM |  |
| COc1ccc(-c2nnc(NC3N=C(c4ccccc4)c4ccccc4NC3=O)o2)nc1Cl (stereo not drawn) [Example 109] | > 800 nM |  |
| O=C1Nc2ccccc2C(c2ccccc2)=N[C@@H]1Nc1nnc(-c2ncc(C(F)(F)F)cc2N2CCOc3ccccc32)o1 [Example 468] | > 800 nM |  |
| O=C1Nc2ccccc2C(c2ccccc2)=N[C@@H]1Nc1nnc(-c2nc(C(F)(F)F)sc2N2CCO[C@@H]3C[C@@H]32)o1 [Example 484] |  | EC50 [1, 3]: < 400 nM |
| O=C1Nc2ccccc2C(c2ccccc2)=N[C@@H]1Nc1nnc(-c2ccc(C3CC3)nc2N2CCOCC2)o1 [Example 154] | < 400 nM |  |
| COc1ccc(CN2C(=O)C(C)(N)N=C(c3ccccc3)c3ccccc32)cc1 (stereo not drawn) [Example 102] | > 800 nM |  |
| CC1(Nc2cc(C(F)(F)F)cnc2-c2nnc(N[C@H]3N=C(c4ccccc4)c4ccccc4NC3=O)o2)CCOC1 (stereo partly drawn) [Example 424] | > 800 nM |  |
| O=C1Nc2ccccc2C(c2ccccc2)=N[C@@H]1Nc1nnc(-c2ncc(C3=CCCCC3)cc2N2CCOCC2)o1 [Example 312] | 400 to 800 nM |  |
| O=C1Nc2ccccc2C(c2ccccc2)=NC1Nc1nnc(C2CC2)[nH]1 (stereo not drawn) [Example 372] | > 800 nM |  |
| N#Cc1ccn2ncc(-c3nnc(N[C@H]4N=C(c5ccccc5)c5ccccc5NC4=O)o3)c2c1 [Example 441] | > 800 nM |  |
| O=C1Nc2ccccc2C(c2ccccc2)=NC1Nc1nnc(-c2ccc(N3CCCC3)cc2)o1 (stereo not drawn) [Example 184] | 400 to 800 nM |  |
| O=C1Nc2ccccc2C(c2ccccc2)=N[C@@H]1Nc1nnc(-c2cn(C3CCC3)nc2N2CCOCC2)o1 [Example 430] | < 400 nM |  |
| COC1C2CN(c3cc(C(F)(F)F)cnc3-c3nnc(N[C@H]4N=C(c5ccccc5)c5ccccc5NC4=O)o3)CC21 (stereo partly drawn) [Example 439] | > 800 nM |  |
| O=C1Nc2ccccc2C(c2ccccc2)=NC1Nc1nnc(-c2ccc(N3CCOCC3)nc2)o1 (stereo not drawn) [Example 115] | < 400 nM |  |
| O=C1Nc2ccccc2C(c2ccccc2)=NC1Nc1nnc(-c2ccncc2N2CCCCC2)o1 (stereo not drawn) [Example 141] | > 800 nM |  |
| C[C@@H]1COCCN1c1cc(C#N)ccc1-c1nnc(N[C@H]2N=C(c3ccccc3)c3ccccc3NC2=O)o1 [Example 285] | < 400 nM |  |
| CC1(C)CC(c2nnc(NC3N=C(c4ccccc4)c4ccccc4NC3=O)o2)C1 (stereo not drawn) [Example 206] | > 800 nM |  |
| N#Cc1ccc(-c2nnc(N[C@H]3N=C(c4ccccc4)c4ccccc4NC3=O)o2)c(N2CC3CCC(C2)O3)c1 [Example 281] | < 400 nM |  |
| O=C1Nc2ccccc2C(c2ccccc2)=N[C@@H]1Nc1nnc(-c2ncc(C(F)(F)F)cc2NC[C@H]2CCCO2)o1 [Example 420] | < 400 nM |  |
| O=C1Nc2ccccc2C(c2ccccc2)=NC1Nc1nnc(-c2ccc(-n3ccnc3)cc2)o1 (stereo not drawn) [Example 231] | < 400 nM |  |
| N#Cc1ccc(-c2nnc(NC3N=C(c4ccccc4)c4ccccc4NC3=O)[nH]2)cc1 (stereo not drawn) [Example 365] | 400 to 800 nM |  |
| CO[C@@H](C)CNc1sc(C(F)(F)F)nc1-c1nnc(N[C@H]2N=C(c3ccccc3)c3ccccc3NC2=O)o1 [Example 452] | < 400 nM |  |
| COCCn1ccnc1-c1nnc(N[C@H]2N=C(c3ccccc3)c3ccccc3NC2=O)o1 [Example 306] | > 800 nM |  |
